# Data reported in PubChem BioAssay (NCI).
# Several values for one entry are separate records, joined by “and”; a condition that tells them apart may be missing. Identical values can stand only once.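 Briefly, cells in 96-well plates were exposed to five compound concentrations for 48 h, and endpoints were estimated by linear interpolation. GI50 = concentration required for 50% inhibition of growth. TGI is the concentration that stops growth completely.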 Where a SMILES comes first, the peptide text is derived from it. Bridges are numbered along the chain shown (N, C = ends). [ ]: non-standard residue; d: D form. The star is where a group is joined. Fmoc = O=C(OCC1c2ccccc2-c2ccccc21)*; Aib = CC(C)(N)C(=O)O; OtBu = CC(C)(C)O*; βAla = NCCC(=O)O
# Legend:
# Test in all cases: NCI anticancer screen, dose series, 48 h
# HL-60(TB) leukemia = test system: HL-60(TB) leukemia
# COLO 205 colon = test system: COLO 205 colon
# TK-10 renal = test system: TK-10 renal
# RXF 393 renal = test system: RXF 393 renal
# U251 CNS = test system: U251 CNS
# KM12 colon = test system: KM12 colon
# 786-0 renal = test system: 786-0 renal
# HT29 colon = test system: HT29 colon
# SK-MEL-2 melanoma = test system: SK-MEL-2 melanoma
Compound,TGI (HL-60(TB) leukemia),TGI (COLO 205 colon),TGI (TK-10 renal) [µM],TGI (RXF 393 renal),TGI (U251 CNS),TGI (KM12 colon),TGI (786-0 renal),TGI (HT29 colon),TGI (SK-MEL-2 melanoma),GI50 (SK-MEL-2 melanoma),GI50 (KM12 colon)
CC(C)C(NC(=O)OCC1c2ccccc2-c2ccccc21)C(=O)NC(CCC(=O)OC(C)(C)C)C(=O)OC(C)(C)C (stereo not drawn) (Fmoc-Val-Glu(OtBu)-OtBu; configuration not given here),> 100 µM,> 31.6 µM,> 100,> 100 µM,> 100 µM,> 100 µM,> 100 µM,> 100 µM,,,
CSC12c3cc(C)n(-c4ccc([N+](=O)[O-])cc4)c3CC(C)(C)CN1C(=O)C2Oc1ccccc1 (stereo not drawn),,> 100 µM,,> 100 µM,> 100 µM,> 100 µM,> 100 µM,,> 100 µM,,
CC1=NN(c2nc(N)nc(CN3CCOCC3)n2)C(C)(C)C1,30.1 µM,> 100 µM,> 100,> 100 µM,> 100 µM,> 100 µM,31.2 µM,> 100 µM,> 100 µM,,
COc1ccc(C(CC2(c3ccc(OC)cc3)SCCCS2)NC(C)=O)cc1 (stereo not drawn),> 100 µM,56.7 µM,> 100,> 100 µM,> 100 µM,> 100 µM,> 100 µM,> 100 µM,> 100 µM,,
CC1(C)NC(=O)C(NC(=O)C(N)CC(=O)O)CCCCNC(=O)CCNC1=O (stereo not drawn) (H-DK[Aib][βAla]; lactam 2-C; configuration not given here),,> 100 µM,> 100,> 100 µM,> 100 µM,> 100 µM,> 100 µM,> 100 µM,> 100 µM,,
O=C(Nc1ccccc1)c1cc(S(=O)(=O)Nc2n[nH]c(=O)n2-c2ccccc2)c(S)cc1Cl,> 100 µM,> 100 µM,> 100,> 100 µM,> 100 µM,> 100 µM,> 100 µM,> 100 µM,> 100 µM,,
CC(=O)OC[C@H]1CN(OC(C)=O)C[C@@H](n2cc(C)c(=O)[nH]c2=O)O1,> 100 µM,> 100 µM,> 100,> 100 µM,> 100 µM,> 100 µM,> 100 µM,,> 100 µM,,
N#CC(c1ccccc1)N(CCCCCCN(C(=O)c1ccccc1)C(C#N)c1ccccc1)C(=O)c1ccccc1 (stereo not drawn),> 100 µM,39.8 µM,62.6,> 100 µM,> 100 µM,> 100 µM,> 100 µM,> 100 µM,66.3 µM,,
C=C(Cl)C(Cl)(CBr)CCC(Br)C(C)(C)Br (stereo not drawn),6.02 µM,10.8 µM,3.12,4.03 µM,3.37 µM,3.45 µM,2.59 µM,2.41 µM,,,
N#CC12C(=O)NC(=O)C1(C#N)C1C=CC2CC1 (stereo not drawn),> 100 µM,> 100 µM,> 100,> 100 µM,> 100 µM,> 100 µM,> 100 µM,> 100 µM,,,
O=c1c2cc(-c3ccccc3)cnc2sn1-c1ccc(Br)cc1,> 100 µM,> 100 µM,,> 100 µM,> 100 µM,> 100 µM,> 100 µM,> 100 µM,> 100 µM,,
C[C@H](C1CC(C)(O)C(C)(O)C(O)O1)[C@H]1CC[C@H]2[C@@H]3[C@@H]4O[C@@H]4[C@@]4(O)CC=CC(=O)[C@]4(C)[C@H]3CC[C@]12C (stereo partly drawn),> 50 µM,> 50 µM,> 50,> 50 µM,> 50 µM,> 50 µM,> 50 µM,> 50 µM,> 50 µM,,
CO/C=C/C=C(\C#N)C(=O)OC,,> 100 µM,> 100,,> 100 µM,> 100 µM,> 100 µM,> 100 µM,> 100 µM,,
C=CC(=O)Nc1ccc(NC(=O)C=C)c2c1C(=O)c1ccccc1C2=O,24.7 µM,> 100 µM,62.5,,> 100 µM,29.1 µM,84.6 µM,> 100 µM,> 100 µM,,
O=C(O)c1ccccc1C(=O)NCC1S(=O)(=O)OCCOS1(=O)=O,> 100 µM,> 100 µM,> 100,> 100 µM,> 100 µM,,> 100 µM,> 100 µM,> 100 µM,,
N#C/C(=C\c1ccc(F)cc1)c1nc(-c2cc3ccccc3oc2=O)cs1,> 100 µM,> 100 µM,38.3,64.2 µM,61.4 µM,> 100 µM,37.1 µM,> 100 µM,> 100 µM,,
N#CC12C(=O)N3C(=NC(c4ccco4)NC3c3ccco3)C1(C#N)C(c1ccco1)NC1=C2CCCC1 (stereo not drawn),> 100 µM,> 100 µM,> 100,> 100 µM,> 100 µM,> 100 µM,> 100 µM,> 100 µM,> 100 µM,,
COc1ccc(C(=O)C#Cc2cn(C3CC(O)C(CO)O3)c(=O)[nH]c2=O)cc1 (stereo not drawn),> 10 µM,> 100 µM,> 100,> 100 µM,> 100 µM,> 100 µM,> 100 µM,> 100 µM,> 100 µM,,
CC(=O)Nc1ccc2c3c(cc(O)c2c1)N(C(=O)CCCC(=O)N1CC(CCl)c2c1cc(O)c1cc(NC(C)=O)ccc21)CC3CCl (stereo not drawn),0.0153 µM,0.0215 µM,0.057,< 0.01 µM,< 0.0139 µM,11.6 µM,0.195 µM,,< 0.0152 µM,,
CSc1ncnc2c1ncn2CCC(=O)O,> 100 µM,> 100 µM,> 100,> 100 µM,,> 100 µM,> 100 µM,> 100 µM,,,
CC(C)CC(NC(=O)C(C)(CI)Cc1ccccc1)C(=O)Nc1ccccc1 (stereo not drawn),> 100 µM,> 100 µM,> 100,> 100 µM,> 100 µM,> 100 µM,> 100 µM,,> 100 µM,,
O=C1/C(=C\c2ccc(Cl)cc2)N=C(c2ccccc2)N1n1c(=O)cn[nH]c1=S,64.6 µM,> 100 µM,,,37.7 µM,> 100 µM,39.7 µM,> 100 µM,> 100 µM,,
COC(=O)CCC(=O)c1ccc2c(c1)CCC2,> 100 µM,,> 100,> 100 µM,> 100 µM,,> 100 µM,> 100 µM,> 100 µM,,
C=CCOC(=O)CC[C@H](NC(=O)[C@@H](CCC(F)(F)F)Cc1ccc(O)cc1)C(=O)OCC=C,> 100 µM,40.7 µM,,> 100 µM,,> 100 µM,> 100 µM,> 100 µM,,,

Compound,TGI (HL-60(TB) leukemia),TGI (COLO 205 colon),TGI (TK-10 renal) [µM],TGI (RXF 393 renal),TGI (U251 CNS),TGI (KM12 colon),TGI (786-0 renal),TGI (HT29 colon),TGI (SK-MEL-2 melanoma),GI50 (SK-MEL-2 melanoma),GI50 (KM12 colon)
CC(=O)O[C@@H]1C[C@]2(C(=O)c3ccccc3)C(=O)C(=O)S[C@]12c1ccccc1,,> 100 µM,> 100,49.9 µM,> 100 µM,> 100 µM,> 100 µM,> 100 µM,> 100 µM,,
CC1OC(OC2C(OC(=O)[C@]34CCC(C)(C)C[C@H]3C3=CC[C@@H]5[C@@]6(C)CC[C@H](OC7OC(C(=O)O)C(O)C(O)C7O)C(C)(C)[C@@H]6CC[C@@]5(C)[C@]3(C)C[C@H]4O)OCC(O)C2O)C(O)C(O)C1OC1OCC(O)C(O)C1O (stereo partly drawn),30.5 µM and 26.9 µM,12.3 µM and 3.98 µM,,35.4 µM and 31.6 µM,29.1 µM and 24.3 µM,22.3 µM and 14.2 µM,28.8 µM and 26.1 µM,20.2 µM and 17 µM,30.4 µM and 12.4 µM,15.4 µM and 3.47 µM,9.85 µM and 3.45 µM
C=CCN(c1cc(OC)c(NC(C)=O)cc1[N+](=O)[O-])S(C)(=O)=O,> 100 µM,> 100 µM,> 100,> 100 µM,> 100 µM,> 100 µM,> 100 µM,,> 100 µM,,
CCOC(=O)C1(C#N)OC(=O)c2cnccc21 (stereo not drawn),> 100 µM,> 100 µM,,> 100 µM,> 100 µM,> 100 µM,> 100 µM,> 100 µM,> 100 µM,,
COC(=O)c1c([N+](=O)[O-])ncn1[C@H]1OC[C@@H](OC(C)=O)[C@@H](OC(C)=O)[C@@H]1OC(C)=O,> 100 µM,> 100 µM,> 100,> 100 µM,> 100 µM,> 100 µM,> 100 µM,> 100 µM,,,
Cc1[nH]c(=O)nc2nc3cc(Cl)cc(Cl)c3c(NC(C)(CO)CO)c12,,> 100 µM,84.1,> 100 µM,28.8 µM,> 100 µM,91.6 µM,> 100 µM,> 100 µM,,
FC1(F)[Se]C2C3CCC(C3)C2C1(F)F (stereo not drawn),,> 100 µM,> 100,> 100 µM,> 100 µM,> 100 µM,> 100 µM,,> 100 µM,,
CSC1=N/C(=C\c2ccc(Cl)cc2)C(=O)N1CN1CCCCC1,,> 100 µM,> 100,,> 100 µM,> 100 µM,> 100 µM,> 100 µM,> 100 µM,,
O=c1oc2ccc3ccccc3c2cc1-c1nnc(Nc2ccccc2)s1,,,32.1,29.7 µM,21.3 µM,> 100 µM,31.6 µM,> 100 µM,34.7 µM,,
Cc1cc(S(=O)(=O)NC2=NCc3nc4ccccc4n32)c(S)cc1Cl,51.8 µM,34.4 µM,> 100,33 µM,> 100 µM,38 µM,47.8 µM,,29.2 µM,,
Oc1c(Br)cc(/C=C/c2ccnc(/C=C/c3cc(Br)c(O)c(Br)c3)c2)cc1Br,60.6 µM,59.9 µM,75,,30.8 µM,38.7 µM,35.3 µM,40.2 µM,34.4 µM,,
CN=C1Nc2ccccc2C(=O)N2CSCC12 (stereo not drawn),,> 100 µM,> 100,> 100 µM,> 100 µM,> 100 µM,> 100 µM,> 100 µM,> 100 µM,,
CCN1CCC(O)(c2ccc(Oc3ccc(Cl)cc3)cc2)C(C(=O)c2ccc(Oc3ccc(Cl)cc3)cc2)C1 (stereo not drawn),4.46 µM,27.4 µM,23,46.8 µM,,14.9 µM,12.3 µM,17.7 µM,36.9 µM,,
CC1=NN(c2cccc(Cl)c2)C2(SCC(=O)N2c2nc3ccccc3s2)C1=CC=Cc1ccccc1 (stereo not drawn),3.04 µM,,> 100,64.1 µM,48.8 µM,> 100 µM,> 100 µM,> 100 µM,59.8 µM,,
CCOC(=O)C(C(=O)OCC)=C1SC(=Nc2ccccc2)C(=Nc2ccccc2)N1c1ccccc1,> 100 µM,> 100 µM,,> 100 µM,> 100 µM,> 100 µM,> 100 µM,> 100 µM,> 100 µM,,
COc1ccccc1Nc1nc2c([nH]1)c(=O)n(C)c(=O)n2C,> 10 µM,> 10 µM,> 10,> 10 µM,,> 10 µM,> 10 µM,> 10 µM,,,
Cc1cc(S(=O)(=O)Nc2n[nH]c(-c3ccc(Cl)cc3)n2)c(SSc2cc(Cl)c(C)cc2S(=O)(=O)Nc2n[nH]c(-c3ccc(Cl)cc3)n2)cc1Cl,48.5 µM,67.4 µM,> 100,63.7 µM,78.6 µM,77.4 µM,> 100 µM,57.2 µM,,,
O=C1/C(=C/c2cccc(Cl)c2)CCCc2ccccc21,30.7 µM,38.5 µM,34.9,,29.4 µM,32.3 µM,33.7 µM,30.9 µM,31.2 µM,,
COc1ccc(S(=O)(=O)N2C(=O)CCC2C(=O)NC(N)=O)cc1 (stereo not drawn),> 100 µM,> 100 µM,> 100,,> 100 µM,> 100 µM,> 100 µM,> 100 µM,> 100 µM,,
CC(=O)OCCn1cnc2c(NCC=C(C)C)ncnc21,> 100 µM,> 100 µM,> 100,> 100 µM,,> 100 µM,> 100 µM,> 100 µM,,,
Cc1c(C)c2ccc(OCC(O)COC(C)C)c(C)c2oc1=O (stereo not drawn),60.3 µM,> 10 µM,62.3,,33.8 µM,> 100 µM,> 10 µM,> 100 µM,36.8 µM,,
CC(=O)c1nc2ccccc2n1C(C)C(=O)c1ccccc1 (stereo not drawn),> 100 µM,> 100 µM,> 100,> 100 µM,> 100 µM,> 100 µM,> 100 µM,> 100 µM,,,
O=C(Nc1ccc(C(F)(F)F)cc1)NC(F)(F)F,> 100 µM,> 100 µM,> 100,> 100 µM,> 100 µM,,> 100 µM,> 100 µM,> 100 µM,,
